Legend:
Test in all cases: post-emergence greenhouse herbicidal test
Format in all cases: in vivo
Conditions in all cases: application rate 250 g/ha, 100 = complete destruction, 0 = no damage
[1] = system: AMARE (Amaranthus retroflexus)
Text: (§1) The seeds of the test plants were sown separately for each species. For the post-emergence treatment, the test plants were first grown to a height of 3 to 15 cm, depending on the plant habit, and only then treated with the active ingredients which had been suspended or emulsified in water. For this purpose, the test plants were either sown directly and grown in the same containers, or they were first grown separately as seedlings and transplanted into the test containers a few days prior to treatment. Depending on the species, the plants were kept at 10-25° C. or 20-25° C., respectively. The test period extended over 2 to 4 weeks. During this time, the plants were tended, and their response to the individual treatments was evaluated. Evaluation was carried out using a scale from 0 to 100. 100 means no emergence of the plants, or complete destruction of at least the aerial moieties, and 0 means no damage, or normal course of growth. A good herbicidal activity is given at values of at least 70 and a very good herbicidal activity is given at values of at least 85. At an application rate of 250 g/ha the following compounds were tested in post-emergence tests against: ECHCG (Echinocloa crus-galli) AMARE (Amaranthus retroflexus) CHEAL (Chenopodium album)

[2] = system: CHEAL (Chenopodium album)
Text: as §1

[3] = system: ECHCG (Echinocloa crus-galli)
Text: as §1

Cn1nnnc1NC(=O)c1cc(Cl)cc(NC(=O)N(C2CC2)C2CC2)c1Cl [Example 1, 2,5-dichloro-3-(dicyclopropylcarbamoylamino)-N-(1-methyltetrazol-5-yl)benzamide]
>80: herbicidal activity against AMARE (scale from 0 to 100) [1] | herbicidal activity against CHEAL (scale from 0 to 100) [2] | herbicidal activity against ECHCG (scale from 0 to 100) [3]

CN(CC(F)(F)F)C(=O)Nc1cc(Cl)cc(C(=O)Nc2nnnn2C)c1Cl [Example 2, 2,5-dichloro-3-[(2,2,2-trifluoroethyl)(methyl)carbamoylamino]-N-(1-methyltetrazol-5-yl)benzamide]
>80: herbicidal activity against AMARE (scale from 0 to 100) [1] | herbicidal activity against CHEAL (scale from 0 to 100) [2] | herbicidal activity against ECHCG (scale from 0 to 100) [3]
